Patent publication US6518399B1, “Receptor” (Smithkline Beecham Corporation, priority 1998, dated 2003)

T1: HA-GABAB-R2 (Homo sapiens, UniProt O75899)
T1 construct: heterodimerisation between full-length expressed GABAB-R1 and GABAB-R2 in mammalian cells; expressed in transfected cells; host or cells: HEK293T
T1 sequence (O75899 42-941): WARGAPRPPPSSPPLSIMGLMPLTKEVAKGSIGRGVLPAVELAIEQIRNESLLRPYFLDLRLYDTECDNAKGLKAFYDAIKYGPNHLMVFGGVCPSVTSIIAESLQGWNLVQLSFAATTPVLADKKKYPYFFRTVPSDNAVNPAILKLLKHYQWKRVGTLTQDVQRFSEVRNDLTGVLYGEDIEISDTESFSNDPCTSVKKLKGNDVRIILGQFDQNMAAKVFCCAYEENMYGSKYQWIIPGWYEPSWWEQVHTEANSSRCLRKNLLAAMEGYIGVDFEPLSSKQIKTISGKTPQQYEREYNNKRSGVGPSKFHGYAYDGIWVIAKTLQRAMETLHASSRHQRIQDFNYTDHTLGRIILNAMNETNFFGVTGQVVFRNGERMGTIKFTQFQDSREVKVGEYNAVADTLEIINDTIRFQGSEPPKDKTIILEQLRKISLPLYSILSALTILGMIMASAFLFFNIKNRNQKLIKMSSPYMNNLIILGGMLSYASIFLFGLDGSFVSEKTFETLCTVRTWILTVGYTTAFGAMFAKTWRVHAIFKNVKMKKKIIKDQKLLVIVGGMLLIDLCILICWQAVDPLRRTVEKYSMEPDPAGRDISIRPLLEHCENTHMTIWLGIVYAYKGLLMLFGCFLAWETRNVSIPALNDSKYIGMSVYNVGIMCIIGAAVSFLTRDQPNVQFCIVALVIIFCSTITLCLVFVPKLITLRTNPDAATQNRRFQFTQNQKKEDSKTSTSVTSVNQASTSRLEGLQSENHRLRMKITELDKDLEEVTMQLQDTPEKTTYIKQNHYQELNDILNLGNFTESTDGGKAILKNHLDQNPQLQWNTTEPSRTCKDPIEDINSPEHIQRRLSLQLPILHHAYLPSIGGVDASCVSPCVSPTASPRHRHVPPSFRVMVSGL

B1: GABAB-R1 C-terminal domain (C-terminal 108 amino acids of GABAB-R1), GAL4 fusion (receptor, not shown: small tags and cut ends)
chain: VPKMRRLITRGEWQSEAQDTMKTGSSTNNNEEEKSRLLEKENRELEKIIAEKEERVSELRHQLQSRQQLRSRRHPPTPPEPSGGLPRGPPEPPDRLSCDGSRVHLLYK
notes: Used as GAL4BD fusion in the library screen and as both GAL4BD and GAL4AD fusions in the direct test (all combinations); also called GABAB-R1 C-terminus; GAL4BD-GABAB-R1 C-terminus
B2: GABAB-R2 C-terminal domain, GAL4 fusion (receptor, not shown: small tags and cut ends)
chain: VPKLITLRTNPDAATQNRRFQFTQNQKKEDSKTSTSVTSVNQASTSRLEGLQSENHRLRMKITELDKDLEEVTMQLQDTPEKTTYIKQNHYQELNDILNLGNFTESTDGGKAILKNHLDQNPQLQWNTTEPSRTCKDPIEDINSPEHIQRRLSLQLPILHHAYLPSIGGVDASCVSPCVSPTASPRHRHVPPSFRVMVSGL
notes: Only the intracellular C-terminal domain of GABAB-R2 was used; also called GABAB-R2 C-terminus; YTH HITS

Assays:
[1] = test system: GABAB-R1a, GABAB-R1b or GABAB-R2 receptors expressed alone; assay type: cell-based, human; conditions: for Functional response, CFTR or GIRK1/4 current: GABAB-R1a, GABAB-R1b or GABAB-R2 expressed singly with CFTR or GIRK1/4
Procedure: Adult female Xenopus laevis (Blades Biologicals) were anaesthetised using 0.2% tricaine (3-aminobenzoic acid ethyl ester), killed and the ovaries rapidly removed. […] Single stage V and VI oocytes were transferred to ND96 solution (96 mM NaCl, 2 mM KCl, 1 mM MgCl2, 1.8 mM CaCl2, 5 mM HEPES; pH 7.5 at 25° C.) which contained 50 μg ml^−1 gentamycin and stored at 18° C.
GABAB-R1a, GABAB-R1b (both in pcDNA3.1rev, Invitrogen), GABAB-R2, GIRK1, GIRK4 (in pcDNA3) and cystic fibrosis transmembrane regulator (CFTR; in pBluescript, Stratagene) were linearised and transcribed to RNA using T7 or T3 polymerase (Promega Wizard kit). m′G(5′)pp(5′)GTP capped cRNA was injected into oocytes (20-50 nl of 1 μgμl^−1 RNA per oocyte) and whole-cell currents were recorded using two-microelectrode voltage-clamp (Geneclamp amplifier, Axon instruments Inc.) 3 to 7 days post-RNA injection. […] In all experiments oocytes were voltage-clamped at a holding potential of −60 mV in ND96 solution (superfused at 2 ml per min.) and agonists were applied by addition to this extracellular solution. In GIRK experiments the extracellular solution was changed to a high potassium solution prior to agonist application, to facilitate the recording of inward potassium currents. Current-voltage curves were constructed by applying 200 ms voltage-clamp pulses from the holding potential of […] to test potentials between −100 mV and +50 mV.

[2] = molecular target: T1, HA-GABAB-R2; assay: [3H]-CGP54626 binding, HEK293T cells transfected with HA-GABAB-R2 alone; conditions: HA-GABAB-R2 alone (data not shown)
Excerpt: […]. […] […]

[3] = molecular target: HA-GABAB-R1b (Homo sapiens, UniProt Q9UBS5); assay: [3H]-CGP54626 binding, HEK293T membranes expressing HA-GABAB-R1b alone; conditions: HA-GABAB-R1b expressed alone
HA-GABAB-R1b, sequence (Q9UBS5 30-844 isoform Q9UBS5-2 limits assumed): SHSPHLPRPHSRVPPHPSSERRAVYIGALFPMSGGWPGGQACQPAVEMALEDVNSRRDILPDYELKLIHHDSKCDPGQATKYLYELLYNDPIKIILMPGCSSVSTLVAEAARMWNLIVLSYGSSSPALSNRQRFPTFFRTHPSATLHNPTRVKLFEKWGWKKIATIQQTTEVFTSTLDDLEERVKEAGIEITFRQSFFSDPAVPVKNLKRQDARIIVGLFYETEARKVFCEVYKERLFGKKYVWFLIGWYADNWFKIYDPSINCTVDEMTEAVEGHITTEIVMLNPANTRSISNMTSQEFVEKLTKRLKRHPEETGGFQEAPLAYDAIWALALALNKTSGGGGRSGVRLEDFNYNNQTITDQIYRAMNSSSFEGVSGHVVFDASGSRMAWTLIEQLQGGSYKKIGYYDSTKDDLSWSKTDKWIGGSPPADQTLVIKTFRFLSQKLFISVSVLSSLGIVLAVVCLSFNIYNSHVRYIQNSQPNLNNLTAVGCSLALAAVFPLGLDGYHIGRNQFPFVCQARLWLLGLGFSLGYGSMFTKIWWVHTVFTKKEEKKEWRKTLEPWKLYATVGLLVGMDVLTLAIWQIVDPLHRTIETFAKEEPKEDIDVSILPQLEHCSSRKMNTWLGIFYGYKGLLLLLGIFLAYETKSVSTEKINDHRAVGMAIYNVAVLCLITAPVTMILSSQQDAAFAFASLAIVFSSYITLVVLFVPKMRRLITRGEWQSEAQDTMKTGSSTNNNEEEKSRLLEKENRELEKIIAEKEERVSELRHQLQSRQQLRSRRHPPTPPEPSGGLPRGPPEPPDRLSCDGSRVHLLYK
Procedure: Competition binding assays were performed in 50 mM Tris HCl buffer (pH7.4) containing 40 μM isoguvacine (Tocris Cookson) to block rat brain GABAA binding sites. P2 membrane preparations were made from HEK293T cells transfected using conditions described above. […] Assay conditions were 0.4-0.6 nM [^3H]-CGP54626, incubated with 50 μg/tube crude rat brain ‘mitochondrial’ fractions or 25 μg/tube HEK293T P2 membranes at room temperature for 20 minutes.

[4] = molecular target: the molecule itself; assay: yeast two hybrid, GAL4BD and GAL4AD fusions of the C-termini (FIG. 5); the library screen also did not retrieve the GABAB-R1 C-terminal domain
[5] = molecular target: B2; assay: yeast two hybrid, direct test of the C-termini (β-galactosidase, FIG. 5); GABAB-R2 C-terminal domain also recovered 33 times in the library screen with the GABAB-R1 bait
[6] = molecular target: the molecule itself; assay: yeast two hybrid, GAL4BD and GAL4AD fusions of the C-termini (FIG. 5)

Molecule: NCC(CC(=O)O)c1ccc(Cl)cc1 (centres unmarked) [Baclofen]
Functional response, CFTR or GIRK1/4 current [1]: No functional responses

Molecule: NCCCC(=O)O [GABA, γ-amino-butyric acid]
Functional response, GIRK1/4 current ([1]; GABAB-R1a and GABAB-R1b expressed alone (data not shown)): gave no response to GABA
Functional response, CFTR or GIRK1/4 current [1]: No functional responses

Molecule: C[C@H](NC[C@H](O)CP(=O)(O)CC1CCCCC1)c1ccc(Cl)c(Cl)c1 [[3H]-CGP54626]
Specific binding of radioligand [2]: unable to detect any [3H]-CGP54626 specific binding
Specific binding of radioligand [3]: high levels of specific binding

Molecule: B1
binding result [4]: no binding
binding result [5]: binds

Molecule: B2
binding result [6]: no binding
